Laboratory results published in the NIST ThermoML archive (doi:10.1007/s10765-011-1052-5).
Where “and” joins values, the source holds several entries; their conditions need not be identical. Equal entries are not always repeated. Numbers after ± are expanded uncertainties.

Settings: Fluid (supercritical or subcritical phases), Hot wire method

[HH] [hydrogen]
Settings	thermal conductivity
423.27 K, 402 kPa	0.2431 ± 0.0054 W/m/K
473.27 K, 10065 kPa	0.2681 ± 0.006 W/m/K and 0.2687 ± 0.006 W/m/K
473.27 K, 30123 kPa	0.2799 ± 0.0062 W/m/K
473.27 K, 30124 kPa	0.28 ± 0.0062 W/m/K and 0.2803 ± 0.0062 W/m/K
473.27 K, 70155 kPa	0.3079 ± 0.0068 W/m/K
473.27 K, 70156 kPa	0.3088 ± 0.0069 W/m/K
473.27 K, 70160 kPa	0.3069 ± 0.0068 W/m/K
473.27 K, 97457 kPa	0.3277 ± 0.0073 W/m/K
473.27 K, 97459 kPa	0.3262 ± 0.0073 W/m/K
473.27 K, 97460 kPa	0.3282 ± 0.0073 W/m/K
473.28 K, 407 kPa	0.2609 ± 0.0058 W/m/K
473.28 K, 408 kPa	0.261 ± 0.0058 W/m/K
473.28 K, 409 kPa	0.2611 ± 0.0058 W/m/K
473.28 K, 5166 kPa	0.2673 ± 0.0059 W/m/K
473.28 K, 5167 kPa	0.267 ± 0.0059 W/m/K and 0.2671 ± 0.0059 W/m/K
473.28 K, 10065 kPa	0.2691 ± 0.006 W/m/K
473.28 K, 50176 kPa	0.294 ± 0.0065 W/m/K
473.28 K, 50178 kPa	0.2937 ± 0.0065 W/m/K
473.28 K, 50179 kPa	0.292 ± 0.0065 W/m/K
473.29 K, 408 kPa	0.2613 ± 0.0058 W/m/K
573.26 K, 50202 kPa	0.3283 ± 0.0073 W/m/K
573.26 K, 50208 kPa	0.3253 ± 0.0072 W/m/K
573.26 K, 96979 kPa	0.356 ± 0.0079 W/m/K
573.26 K, 96990 kPa	0.3549 ± 0.0079 W/m/K
573.26 K, 97001 kPa	0.3548 ± 0.0079 W/m/K
573.27 K, 5202 kPa	0.3043 ± 0.0068 W/m/K and 0.3057 ± 0.0068 W/m/K and 0.3047 ± 0.0068 W/m/K
573.27 K, 10155 kPa	0.3066 ± 0.0068 W/m/K and 0.3072 ± 0.0068 W/m/K
573.27 K, 10156 kPa	0.3066 ± 0.0068 W/m/K
573.27 K, 30167 kPa	0.3171 ± 0.0071 W/m/K and 0.3173 ± 0.0071 W/m/K and 0.3175 ± 0.0071 W/m/K
573.27 K, 50204 kPa	0.3274 ± 0.0073 W/m/K
573.27 K, 70099 kPa	0.3376 ± 0.0075 W/m/K
573.27 K, 70106 kPa	0.3381 ± 0.0075 W/m/K
573.27 K, 70114 kPa	0.3387 ± 0.0075 W/m/K
573.28 K, 365 kPa	0.2934 ± 0.0065 W/m/K
573.28 K, 367 kPa	0.2929 ± 0.0065 W/m/K
573.28 K, 369 kPa	0.2931 ± 0.0065 W/m/K
672.87 K, 30056 kPa	0.3514 ± 0.0078 W/m/K
672.87 K, 30063 kPa	0.3522 ± 0.0078 W/m/K
672.87 K, 30074 kPa	0.3514 ± 0.0078 W/m/K
672.87 K, 50096 kPa	0.36 ± 0.008 W/m/K
672.87 K, 50118 kPa	0.3625 ± 0.0081 W/m/K
672.87 K, 98041 kPa	0.3854 ± 0.0086 W/m/K
672.87 K, 98074 kPa	0.3853 ± 0.0086 W/m/K
672.87 K, 98109 kPa	0.3873 ± 0.0086 W/m/K
672.88 K, 5137 kPa	0.342 ± 0.0076 W/m/K
672.88 K, 5140 kPa	0.344 ± 0.0076 W/m/K
672.88 K, 5143 kPa	0.3429 ± 0.0076 W/m/K
672.88 K, 5147 kPa	0.343 ± 0.0076 W/m/K
672.88 K, 10059 kPa	0.3459 ± 0.0077 W/m/K
672.88 K, 10060 kPa	0.3456 ± 0.0077 W/m/K
672.88 K, 10061 kPa	0.3445 ± 0.0077 W/m/K
672.88 K, 50107 kPa	0.3616 ± 0.008 W/m/K
672.88 K, 70012 kPa	0.3693 ± 0.0082 W/m/K
672.88 K, 70030 kPa	0.3711 ± 0.0083 W/m/K
672.88 K, 70044 kPa	0.3699 ± 0.0082 W/m/K
672.89 K, 304 kPa	0.3296 ± 0.0073 W/m/K and 0.329 ± 0.0073 W/m/K
672.89 K, 305 kPa	0.329 ± 0.0073 W/m/K
672.89 K, 306 kPa	0.3287 ± 0.0073 W/m/K
771.9 K, 29994 kPa	0.3905 ± 0.0087 W/m/K
771.9 K, 30036 kPa	0.3906 ± 0.0087 W/m/K
771.9 K, 49904 kPa	0.3973 ± 0.0088 W/m/K
771.9 K, 49932 kPa	0.3973 ± 0.0088 W/m/K
771.9 K, 70405 kPa	0.408 ± 0.0092 W/m/K
771.9 K, 70444 kPa	0.4037 ± 0.009 W/m/K
771.9 K, 70484 kPa	0.4065 ± 0.009 W/m/K
771.9 K, 98954 kPa	0.4176 ± 0.0093 W/m/K
771.9 K, 99008 kPa	0.417 ± 0.0093 W/m/K
771.9 K, 99143 kPa	0.4168 ± 0.0093 W/m/K
771.9 K, 99205 kPa	0.4188 ± 0.0093 W/m/K
771.91 K, 5144 kPa	0.3835 ± 0.0085 W/m/K
771.91 K, 10086 kPa	0.3838 ± 0.0085 W/m/K
771.91 K, 10092 kPa	0.3825 ± 0.0085 W/m/K
771.91 K, 10100 kPa	0.3836 ± 0.0085 W/m/K
771.91 K, 10109 kPa	0.3825 ± 0.0085 W/m/K
771.91 K, 30014 kPa	0.3888 ± 0.0086 W/m/K
771.91 K, 30058 kPa	0.39 ± 0.0087 W/m/K
771.91 K, 49879 kPa	0.3964 ± 0.0088 W/m/K
771.91 K, 70520 kPa	0.4053 ± 0.0092 W/m/K
771.92 K, 378 kPa	0.3679 ± 0.0082 W/m/K
771.92 K, 381 kPa	0.3675 ± 0.0082 W/m/K
771.92 K, 383 kPa	0.3671 ± 0.0082 W/m/K
771.92 K, 386 kPa	0.3678 ± 0.0082 W/m/K
771.92 K, 5136 kPa	0.3832 ± 0.0085 W/m/K
771.92 K, 5140 kPa	0.3835 ± 0.0085 W/m/K
